Measurements from ChEMBL document CHEMBL1145498, “A systematic interaction map of validated kinase inhibitors with Ser/Thr kinases” (Proc Natl Acad Sci U S A, 2007).

Assays:
[1] = molecular target: Cyclin-dependent kinase 2 (Homo sapiens, UniProt P24941)
[2] = molecular target: Casein kinase I isoform gamma-1 (Homo sapiens) (UniProt Q9HCP0)
[3] = molecular target: Serine/threonine-protein kinase OSR1 (Homo sapiens) (UniProt O95747)
[4] = molecular target: Serine/threonine-protein kinase PLK1 (Homo sapiens) (UniProt P53350)
[5] = molecular target: Serine/threonine-protein kinase 25 (Homo sapiens) (UniProt O00506)
[6] = molecular target: Dual specificity protein kinase CLK2 (Homo sapiens) (UniProt P49760)
[7] = molecular target: Serine/threonine-protein kinase 10 (Homo sapiens) (UniProt O94804)
[8] = molecular target: Dual specificity mitogen-activated protein kinase kinase 2 (Homo sapiens, UniProt P36507)
[9] = molecular target: cAMP-dependent protein kinase catalytic subunit alpha (Homo sapiens) (UniProt P17612)
[10] = molecular target: Calcium/calmodulin-dependent protein kinase type 1G (Homo sapiens) (UniProt Q96NX5)
[11] = molecular target: Glycogen synthase kinase-3 beta (Homo sapiens, UniProt P49841)
[12] = molecular target: Serine/threonine-protein kinase PAK 5 (Homo sapiens) (UniProt Q9P286)
[13] = molecular target: Tyrosine-protein kinase JAK1 (Homo sapiens) (UniProt P23458)
[14] = molecular target: Calcium/calmodulin-dependent protein kinase type 1D (Homo sapiens) (UniProt Q8IU85)
[15] = molecular target: Serine/threonine-protein kinase Nek6 (Homo sapiens) (UniProt Q9HC98)
[16] = molecular target: TRAF2 and NCK-interacting protein kinase (Homo sapiens) (UniProt Q9UKE5)
[17] = molecular target: Mitogen-activated protein kinase 3 (Homo sapiens, UniProt P27361)
[18] = molecular target: STE20-like serine/threonine-protein kinase (Homo sapiens) (UniProt Q9H2G2)
[19] = molecular target: Serine/threonine-protein kinase pim-3 (Homo sapiens) (UniProt Q86V86)
[20] = molecular target: Death-associated protein kinase 3 (Homo sapiens) (UniProt O43293)
[21] = molecular target: Serine/threonine-protein kinase 26 (Homo sapiens) (UniProt Q9P289)
[22] = molecular target: Calcium/calmodulin-dependent protein kinase type II subunit delta (Homo sapiens) (UniProt Q13557)
[23] = molecular target: T1, Dual specificity mitogen-activated protein kinase kinase 6 (Homo sapiens) (UniProt P52564)
T1 sequence (whole entry): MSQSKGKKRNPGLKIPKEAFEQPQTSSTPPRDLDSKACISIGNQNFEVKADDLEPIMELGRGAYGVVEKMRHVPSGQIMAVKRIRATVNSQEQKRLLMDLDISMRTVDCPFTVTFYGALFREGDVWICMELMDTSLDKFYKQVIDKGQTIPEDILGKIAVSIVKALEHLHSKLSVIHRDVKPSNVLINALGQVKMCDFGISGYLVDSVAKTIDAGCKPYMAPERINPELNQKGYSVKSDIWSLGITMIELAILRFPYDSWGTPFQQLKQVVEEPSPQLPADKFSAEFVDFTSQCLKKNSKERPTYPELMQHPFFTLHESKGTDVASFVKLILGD

[24] = molecular target: Ribosomal protein S6 kinase alpha-3 (Homo sapiens) (UniProt P51812)
[25] = molecular target: Cyclin-dependent kinase 16 (Homo sapiens) (UniProt Q00536)
[26] = molecular target: 5'-AMP-activated protein kinase catalytic subunit alpha-2 (Homo sapiens) (UniProt P54646)
[27] = molecular target: Calcium/calmodulin-dependent protein kinase kinase 2 (Homo sapiens, UniProt Q96RR4)
[28] = molecular target: Serine/threonine-protein kinase RIO2 (Homo sapiens) (UniProt Q9BVS4)
[29] = molecular target: Casein kinase I isoform gamma-2 (Homo sapiens) (UniProt P78368)
[30] = molecular target: T2, Lymphokine-activated killer T-cell-originated protein kinase (Homo sapiens) (UniProt Q96KB5)
T2 sequence (whole entry): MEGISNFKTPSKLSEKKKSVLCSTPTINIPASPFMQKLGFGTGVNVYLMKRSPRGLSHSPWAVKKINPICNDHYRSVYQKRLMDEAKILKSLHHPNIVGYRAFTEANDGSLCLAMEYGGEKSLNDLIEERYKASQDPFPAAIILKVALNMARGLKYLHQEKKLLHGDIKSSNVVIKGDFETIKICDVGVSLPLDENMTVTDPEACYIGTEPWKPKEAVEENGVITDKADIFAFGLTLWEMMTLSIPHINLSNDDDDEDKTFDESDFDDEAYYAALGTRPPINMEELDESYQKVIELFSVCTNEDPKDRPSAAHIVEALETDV

Dual specificity protein kinase CLK2 (Homo sapiens), sequence (P49760 whole entry, looked up): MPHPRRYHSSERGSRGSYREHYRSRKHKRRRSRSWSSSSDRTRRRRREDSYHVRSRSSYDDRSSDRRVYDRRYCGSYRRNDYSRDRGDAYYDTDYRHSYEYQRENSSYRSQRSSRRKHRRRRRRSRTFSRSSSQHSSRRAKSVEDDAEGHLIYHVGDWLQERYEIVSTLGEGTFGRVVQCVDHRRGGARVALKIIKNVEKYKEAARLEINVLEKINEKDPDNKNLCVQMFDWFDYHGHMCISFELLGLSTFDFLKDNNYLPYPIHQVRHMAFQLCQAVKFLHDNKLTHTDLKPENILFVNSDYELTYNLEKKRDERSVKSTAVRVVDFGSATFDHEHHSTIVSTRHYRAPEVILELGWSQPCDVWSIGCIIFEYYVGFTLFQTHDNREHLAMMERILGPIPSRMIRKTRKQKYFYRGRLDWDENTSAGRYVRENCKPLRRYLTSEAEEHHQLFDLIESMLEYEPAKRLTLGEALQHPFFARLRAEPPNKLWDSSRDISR
Serine/threonine-protein kinase 10 (Homo sapiens), sequence (O94804 whole entry, looked up): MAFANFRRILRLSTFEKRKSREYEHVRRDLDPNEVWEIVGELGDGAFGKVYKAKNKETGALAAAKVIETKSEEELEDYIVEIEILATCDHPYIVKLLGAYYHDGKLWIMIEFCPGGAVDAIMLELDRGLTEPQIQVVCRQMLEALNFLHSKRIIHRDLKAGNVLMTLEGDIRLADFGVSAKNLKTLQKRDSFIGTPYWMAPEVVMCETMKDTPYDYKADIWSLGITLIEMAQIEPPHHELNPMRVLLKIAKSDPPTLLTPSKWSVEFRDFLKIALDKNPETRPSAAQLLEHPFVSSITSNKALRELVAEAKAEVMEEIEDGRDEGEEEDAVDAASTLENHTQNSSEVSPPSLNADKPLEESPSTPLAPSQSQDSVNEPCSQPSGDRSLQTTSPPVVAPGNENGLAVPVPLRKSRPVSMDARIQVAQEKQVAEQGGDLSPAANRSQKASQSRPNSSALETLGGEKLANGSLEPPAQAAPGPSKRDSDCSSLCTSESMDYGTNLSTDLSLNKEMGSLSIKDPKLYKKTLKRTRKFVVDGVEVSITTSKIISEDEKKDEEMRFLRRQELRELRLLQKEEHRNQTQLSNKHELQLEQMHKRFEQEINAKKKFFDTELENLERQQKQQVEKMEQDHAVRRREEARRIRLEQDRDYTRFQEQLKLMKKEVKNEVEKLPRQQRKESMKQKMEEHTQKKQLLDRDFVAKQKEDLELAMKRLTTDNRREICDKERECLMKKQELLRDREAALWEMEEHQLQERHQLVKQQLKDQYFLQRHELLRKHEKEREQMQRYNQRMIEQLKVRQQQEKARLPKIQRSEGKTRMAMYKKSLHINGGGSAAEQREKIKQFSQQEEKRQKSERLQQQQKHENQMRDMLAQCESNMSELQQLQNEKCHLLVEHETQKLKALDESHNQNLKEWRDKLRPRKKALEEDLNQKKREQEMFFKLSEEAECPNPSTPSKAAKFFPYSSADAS
Calcium/calmodulin-dependent protein kinase type 1G (Homo sapiens), sequence (Q96NX5 whole entry): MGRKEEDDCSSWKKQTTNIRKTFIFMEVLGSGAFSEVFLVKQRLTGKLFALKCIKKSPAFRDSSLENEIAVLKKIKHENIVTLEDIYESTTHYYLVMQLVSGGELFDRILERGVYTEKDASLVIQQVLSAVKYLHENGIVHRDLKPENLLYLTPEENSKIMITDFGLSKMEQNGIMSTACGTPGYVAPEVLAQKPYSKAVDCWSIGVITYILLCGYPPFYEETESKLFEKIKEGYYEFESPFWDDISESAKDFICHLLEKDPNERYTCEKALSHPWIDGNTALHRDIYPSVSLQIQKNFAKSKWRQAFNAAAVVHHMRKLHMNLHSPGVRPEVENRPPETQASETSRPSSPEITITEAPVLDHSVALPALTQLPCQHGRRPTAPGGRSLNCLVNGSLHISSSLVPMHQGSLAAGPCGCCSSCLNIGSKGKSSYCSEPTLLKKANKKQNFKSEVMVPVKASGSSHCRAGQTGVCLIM
Calcium/calmodulin-dependent protein kinase type II subunit delta (Homo sapiens), sequence (Q13557 whole entry): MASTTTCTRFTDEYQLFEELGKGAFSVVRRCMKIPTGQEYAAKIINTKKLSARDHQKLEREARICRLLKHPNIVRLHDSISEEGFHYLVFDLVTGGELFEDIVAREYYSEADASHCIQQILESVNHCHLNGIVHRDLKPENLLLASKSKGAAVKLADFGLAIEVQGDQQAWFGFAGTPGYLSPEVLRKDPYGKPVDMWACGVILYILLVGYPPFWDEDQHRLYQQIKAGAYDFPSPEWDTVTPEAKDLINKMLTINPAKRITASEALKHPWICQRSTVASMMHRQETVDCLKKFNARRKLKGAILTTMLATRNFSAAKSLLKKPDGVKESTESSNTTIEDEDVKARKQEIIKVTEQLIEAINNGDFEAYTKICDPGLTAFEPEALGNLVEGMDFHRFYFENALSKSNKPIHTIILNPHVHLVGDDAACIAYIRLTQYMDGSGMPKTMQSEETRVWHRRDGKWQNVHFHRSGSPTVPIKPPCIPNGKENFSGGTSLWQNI
Casein kinase I isoform gamma-1 (Homo sapiens), sequence (Q9HCP0 whole entry, looked up, canonical isoform): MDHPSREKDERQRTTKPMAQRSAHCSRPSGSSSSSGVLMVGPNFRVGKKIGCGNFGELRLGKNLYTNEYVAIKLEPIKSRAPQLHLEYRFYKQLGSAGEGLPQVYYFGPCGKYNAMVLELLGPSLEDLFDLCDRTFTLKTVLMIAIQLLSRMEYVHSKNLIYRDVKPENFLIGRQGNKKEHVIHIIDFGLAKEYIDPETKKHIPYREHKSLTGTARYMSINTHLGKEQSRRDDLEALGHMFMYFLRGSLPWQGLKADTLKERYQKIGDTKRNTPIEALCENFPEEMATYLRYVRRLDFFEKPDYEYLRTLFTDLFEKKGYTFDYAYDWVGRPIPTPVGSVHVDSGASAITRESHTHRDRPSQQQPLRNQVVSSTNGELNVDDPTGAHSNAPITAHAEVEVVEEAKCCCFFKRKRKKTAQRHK
Calcium/calmodulin-dependent protein kinase type 1D (Homo sapiens), sequence (Q8IU85 whole entry, looked up): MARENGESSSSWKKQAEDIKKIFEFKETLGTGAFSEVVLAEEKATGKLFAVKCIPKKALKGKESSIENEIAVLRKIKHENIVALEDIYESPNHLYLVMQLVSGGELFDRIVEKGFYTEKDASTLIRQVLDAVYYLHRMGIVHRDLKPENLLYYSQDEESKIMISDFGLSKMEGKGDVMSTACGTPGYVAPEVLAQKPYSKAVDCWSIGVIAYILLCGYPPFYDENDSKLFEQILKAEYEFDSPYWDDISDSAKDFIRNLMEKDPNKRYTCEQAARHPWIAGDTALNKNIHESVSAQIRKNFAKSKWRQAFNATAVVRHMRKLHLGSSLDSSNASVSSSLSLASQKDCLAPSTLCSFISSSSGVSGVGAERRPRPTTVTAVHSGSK
Serine/threonine-protein kinase RIO2 (Homo sapiens), sequence (Q9BVS4 whole entry, looked up, canonical isoform): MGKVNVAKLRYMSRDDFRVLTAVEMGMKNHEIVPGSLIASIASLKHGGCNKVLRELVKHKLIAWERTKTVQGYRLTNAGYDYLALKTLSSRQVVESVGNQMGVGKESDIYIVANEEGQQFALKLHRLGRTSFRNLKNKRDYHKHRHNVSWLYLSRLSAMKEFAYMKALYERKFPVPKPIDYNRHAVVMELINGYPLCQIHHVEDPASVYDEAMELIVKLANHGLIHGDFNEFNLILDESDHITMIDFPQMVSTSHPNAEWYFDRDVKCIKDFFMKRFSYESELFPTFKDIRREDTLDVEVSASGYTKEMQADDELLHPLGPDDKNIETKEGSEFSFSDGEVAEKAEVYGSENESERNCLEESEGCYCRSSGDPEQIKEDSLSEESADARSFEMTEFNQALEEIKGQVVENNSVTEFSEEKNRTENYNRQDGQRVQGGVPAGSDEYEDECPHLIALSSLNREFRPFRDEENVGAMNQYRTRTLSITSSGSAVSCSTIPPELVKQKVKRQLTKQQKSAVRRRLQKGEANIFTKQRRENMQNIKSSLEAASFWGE
Serine/threonine-protein kinase OSR1 (Homo sapiens), sequence (O95747 2-527 limits assumed): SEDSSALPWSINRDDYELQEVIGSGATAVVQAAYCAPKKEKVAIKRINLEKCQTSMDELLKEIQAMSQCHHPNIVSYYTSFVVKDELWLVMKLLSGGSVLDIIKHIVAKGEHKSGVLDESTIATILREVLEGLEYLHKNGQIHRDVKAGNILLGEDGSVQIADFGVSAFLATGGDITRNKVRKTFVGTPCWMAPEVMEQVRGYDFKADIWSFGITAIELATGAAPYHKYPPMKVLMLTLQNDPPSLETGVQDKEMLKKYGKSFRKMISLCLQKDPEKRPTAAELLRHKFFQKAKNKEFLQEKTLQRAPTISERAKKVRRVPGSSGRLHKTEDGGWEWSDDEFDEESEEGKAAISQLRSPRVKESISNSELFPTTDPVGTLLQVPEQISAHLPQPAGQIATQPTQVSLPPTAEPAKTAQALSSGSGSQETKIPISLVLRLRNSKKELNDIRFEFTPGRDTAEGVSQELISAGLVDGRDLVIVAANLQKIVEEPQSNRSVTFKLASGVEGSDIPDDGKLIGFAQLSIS
Serine/threonine-protein kinase Nek6 (Homo sapiens), sequence (Q9HC98 whole entry): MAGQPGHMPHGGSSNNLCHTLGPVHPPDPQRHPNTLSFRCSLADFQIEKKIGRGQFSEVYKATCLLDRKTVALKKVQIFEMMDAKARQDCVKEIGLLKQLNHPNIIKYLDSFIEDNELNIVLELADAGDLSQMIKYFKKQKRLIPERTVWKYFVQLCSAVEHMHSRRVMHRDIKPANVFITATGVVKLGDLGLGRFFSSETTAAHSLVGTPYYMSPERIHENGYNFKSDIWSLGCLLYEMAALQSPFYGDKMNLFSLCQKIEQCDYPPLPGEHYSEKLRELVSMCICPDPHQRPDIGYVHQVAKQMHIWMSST

SMILES | ΔTm [1] | ΔTm [2] | ΔTm [3] | ΔTm [4] | ΔTm [5] | ΔTm [6] | ΔTm [7] | ΔTm [8] | ΔTm [9] | ΔTm [10] | ΔTm [11] | ΔTm [12] | ΔTm [13] | ΔTm [14] | ΔTm [15] | ΔTm [16] | ΔTm [17] | ΔTm [18] | ΔTm [19] | ΔTm [20] | further results
O=C1NC(=O)C(c2c[nH]c3ccccc23)=C1c1c[nH]c2ccccc12 | 1.5 °C | 0.6 °C | 2 °C | 0.6 °C | 2 °C | 2.5 °C | 6.2 °C | 2.8 °C | 1.4 °C | 1 °C | 7.8 °C | 0.6 °C | -0.5 °C | 0.6 °C | -0.2 °C | 1.2 °C | 0.1 °C | 4.6 °C | 6.3 °C | -0.2 °C | ΔTm [21]: 3.7 °C; ΔTm [22]: 1 °C; ΔTm [23]: 1.1 °C; ΔTm [24]: 1 °C; ΔTm [25]: 1.7 °C; ΔTm [26]: 1.2 °C; ΔTm [27]: -0.4 °C; ΔTm [28]: 0 °C; ΔTm [29]: 0.7 °C; ΔTm [30]: -0.2 °C
Ic1cccc(CSc2nnc(-c3ccncc3)o2)c1 | -0.3 °C | 0.6 °C | -0.7 °C | -0.9 °C | -0.3 °C | 1.7 °C | 1.4 °C | -0.8 °C | 0.3 °C | -0.7 °C | 7.1 °C | -0.2 °C | -0.3 °C | -0.3 °C | -0.8 °C | -0.3 °C | 0.5 °C | -0.4 °C | 0.2 °C | 0.2 °C | ΔTm [21]: -0.6 °C; ΔTm [22]: -0.2 °C; ΔTm [23]: 0.3 °C; ΔTm [24]: 0 °C; ΔTm [25]: -0.8 °C; ΔTm [26]: -0.7 °C; ΔTm [27]: -0.6 °C; ΔTm [28]: 1.6 °C; ΔTm [29]: 0.5 °C; ΔTm [30]: 0.3 °C
O=c1cc(-c2ccc(O)cc2)oc2cc(O)cc(O)c12 | 2.3 °C | 1.4 °C | 2.2 °C | 2 °C | 4.9 °C | 2.8 °C | 4 °C | 0.7 °C | 1.7 °C | 0.9 °C | 5 °C | 0.4 °C | 4.6 °C | 1 °C | 0.2 °C | 5.3 °C | 0.5 °C | 2.4 °C | 4.6 °C | 3.5 °C | ΔTm [21]: 2.1 °C; ΔTm [22]: 0.7 °C; ΔTm [23]: 2.2 °C; ΔTm [24]: 2.4 °C; ΔTm [25]: 1.2 °C; ΔTm [26]: 1.5 °C; ΔTm [27]: 3 °C; ΔTm [28]: 0.2 °C; ΔTm [29]: 0.7 °C; ΔTm [30]: 0.5 °C
CCOc1cc(/C=C(\C#N)C(N)=O)cc(CSc2ccccc2)c1O | 0.8 °C | 0.2 °C | 0.9 °C | 1.9 °C | 0.6 °C | 0.2 °C | 1.1 °C | 0.4 °C | 1 °C | 0 °C | 1.1 °C | 0 °C | 4.3 °C | -0.2 °C | -0.1 °C | 0.2 °C | 0.2 °C | 0.5 °C | 1.5 °C | 0.1 °C | ΔTm [21]: -0.5 °C; ΔTm [22]: -0.2 °C; ΔTm [23]: 1.6 °C; ΔTm [24]: 0.1 °C; ΔTm [25]: -0.5 °C; ΔTm [26]: 0 °C; ΔTm [27]: -0.1 °C; ΔTm [28]: 0.1 °C; ΔTm [29]: 0.7 °C; ΔTm [30]: 0.5 °C
Cn1cc(C2=C(c3cn(CCCN)c4ccccc34)C(=O)NC2=O)c2ccccc21 | 3 °C | 0.5 °C | -0.1 °C | 0.2 °C | 2.3 °C | 5.6 °C | 6.7 °C | 0.6 °C | 2.6 °C | 0.3 °C | 11.9 °C | 1.4 °C | -0.5 °C | 0.3 °C | -0.4 °C | 0.8 °C | -0.3 °C | 7.6 °C | 6.7 °C | 2.5 °C | ΔTm [21]: -0.2 °C; ΔTm [22]: -0.5 °C; ΔTm [23]: 0.8 °C; ΔTm [24]: 1.9 °C; ΔTm [25]: 4.7 °C; ΔTm [26]: 1.4 °C; ΔTm [27]: -0.1 °C; ΔTm [28]: 0.5 °C; ΔTm [29]: 0.3 °C; ΔTm [30]: -0.8 °C
COc1cc2ncnc(Nc3cccc(Br)c3)c2cc1OC | 0.1 °C | 0.8 °C | 0.6 °C | -0.3 °C | 1.4 °C | 0.7 °C | 7.4 °C | 0.3 °C | 0.4 °C | 0 °C | 1.5 °C | 0.3 °C | 2.7 °C | 0.3 °C | 0.5 °C | 2 °C | 0.6 °C | 6.9 °C | 1.6 °C | 1.8 °C | ΔTm [21]: 0.6 °C; ΔTm [22]: -0.5 °C; ΔTm [23]: 0.4 °C; ΔTm [24]: 0.1 °C; ΔTm [25]: -0.9 °C; ΔTm [26]: -0.5 °C; ΔTm [27]: 1.4 °C; ΔTm [28]: 1.2 °C; ΔTm [29]: 0.6 °C; ΔTm [30]: 0.3 °C
O=c1cc(N2CCOCC2)oc2c(-c3ccccc3)cccc12 | 0.4 °C | 0.6 °C | 0.4 °C | 4.7 °C | 0 °C | 0.1 °C | 0.8 °C | -0.3 °C | -0.1 °C | 0.4 °C | 1.1 °C | 0.5 °C | 0.6 °C | 0.3 °C | -0.5 °C | -0.2 °C | -0.6 °C | -0.1 °C | 2.8 °C | 1.4 °C | ΔTm [21]: 0.2 °C; ΔTm [22]: 0.4 °C; ΔTm [23]: 0.4 °C; ΔTm [24]: 0.2 °C; ΔTm [25]: 0 °C; ΔTm [26]: -0.9 °C; ΔTm [27]: 0.4 °C; ΔTm [28]: 1 °C; ΔTm [29]: 0.4 °C; ΔTm [30]: -0.5 °C
NC(=O)c1ccc(-c2nc(-c3ccc4c(c3)OCCO4)c(-c3ccccn3)[nH]2)cc1 | 0.6 °C | 0.4 °C | -0.1 °C | -0.5 °C | 0 °C | -0.3 °C | 0.4 °C | -0.1 °C | -0.3 °C | 1 °C | 0.6 °C | 0.4 °C | 1.3 °C | 0 °C | -0.7 °C | -0.6 °C | -0.1 °C | -1.1 °C | 0.4 °C | -0.3 °C | ΔTm [21]: -0.2 °C; ΔTm [22]: 0.3 °C; ΔTm [23]: 0.3 °C; ΔTm [24]: 0 °C; ΔTm [25]: -0.4 °C; ΔTm [26]: -0.7 °C; ΔTm [27]: -1.1 °C; ΔTm [28]: 0.7 °C; ΔTm [29]: 0.4 °C; ΔTm [30]: -1.4 °C
